From patent publication US11124540B2, “Polypeptides for the treatment of diseases” (Neopep Pharma GmbH & Co., KG, priority 2017, dated 2021) come the findings set out here.

The test concerns Pancreas carcinoma cells. Nature of the test: Cancer cell invasion assay on humanized rats with implanted pancreas carcinoma cells. Format: in vivo. To be noted: for Tumor response, 2 w of therapy: after 2 weeks of therapy; for Tumor response, 2 w after end of therapy: 2 weeks after end of therapy; for Tumor response, 1 w of therapy: after 1 week of therapy. As to the method:
The cancer cell invasion assay was performed on humanized rats (Eyol, E. et al., Oncology Reports, 28: 2177-2187, 2012). Pancreas carcinoma cells were implanted. The successful implant was observed by luminescent imaging as well as by an increase in CXCR4 expression.
After a successful implant of carcinoma cells, the rats were treated with a peptide according to Seq ID No. 1 and Seq. ID No. 9 respectively. The results after 1 week of therapy (1 w of therapy), after 2 weeks of therapy (2 w of therapy) and 2 weeks after end of therapy are depicted in the below tables.

Regarding “IVRWSKKVPQVS (human) [Seq ID No. 1, Ile Val Arg Trp Ser Lys Lys Val Pro Gln Val Ser]”, the “Tumor response, 2 w of therapy” value by setting is: (amount of peptide 7 mg) “No tumor growth”; (amount of peptide 10 mg) “Tumor growth”; (amount of peptide 70 mg) “Remission”. The “Tumor response, 2 w after end of therapy” value reads like this: (amount of peptide 10 mg) “Tumor growth”; (amount of peptide 20 mg) “Complete Remission”; (amount of peptide 70 mg) “Complete Remission”. Moreover, the “Tumor response, 1 w of therapy” value by setting is: (amount of peptide 10 mg) “No tumor growth”; (amount of peptide 20 mg) “No tumor growth”; (amount of peptide 70 mg) “No tumor growth”.

“ILRWSRKMPQFS (human) [Seq ID No. 9, Ile Leu Arg Trp Ser Arg Lys Met Pro Gln Phe Ser]”: the “Tumor response, 2 w after end of therapy” value (amount of peptide 35 mg) is “Tumor growth”. Under “amount of peptide 70 mg”, the “Tumor response, 2 w after end of therapy” value was “Tumor growth” and the “Tumor response, 1 w of therapy” value was “Tumor growth”.
